According to patent US20120329860A1, “Uses of Beta-Nicotinamide Adenine Dinucleotide” (MEDICAL COLLEGE OF GEORGIA INSTITUTE, INC, priority 2010, published 2012):
Entries after “also recorded” stand apart in the source; their conditions may differ.

Legend:
Rac1 = test: G-LISA Rac activation assay in HPAEC; assay type: cell-based, human; details: 50 mM β-NAD, time course; basal by 30 min
Description: (§1) Protein extracts were separated by SDS-PAGE, transferred to nitrocellulose membrane and probed with specific antibodies. Horseradish peroxidase-conjugated goat anti-rabbit IgG antibody (Santa Cruz Biotechnology, Santa Cruz, Calif.) was used as the secondary antibody, and immunoreactive proteins were detected using enhanced chemiluminescence detection kit (ECL) according to the manufacturer's protocol (Amersham, Little Chalfont, UK). For quantification, immunoblot data were analyzed using NIH Image 1.63 software. Active Rac1 was determined using G-LISA Rac activation assay according to the manufacturer's recommendations (Cytoskeleton Inc., Denver, Colo.).

LPS-induced ALI in mice [1] = test: Evans Blue Dye-albumin (EBD) lung permeability; assay type: in vivo
Description: (§2) Mice were anesthetized with ketamine (150 mg/kg) and acetylpromazine (15 mg/kg) intraperitoneally (i.p.) before the exposure of the trachea via neck incision and intubation with 20-guage catheter and the right internal jugular vein was exposed via right chest incision for PBS or b-NAD installation. The mice were randomly divided into groups. LPS or sterile saline was instilled intratracheally (i.t.) via a 20-gauge catheter. Simultaneously, mice received either b-NAD (5.4 mg/kg, equivalent to final calculated plasma concentration […] or PBS in the control group intravenously (i.v.) through the internal jugular vein (IJ). The animals were allowed to recover for 18 hr. EBD was given through the IJ 2 hr prior to termination of the experiment. At termination, bronchoalveolar lavage (BAL) was collected. BAL was 1ml of 10% HBSS through the endotracheal catheter immediately on sacrifice with aspiration. BAL was immediately centrifuged and processed. After the BAL, ethylenediaminetetraacetic acid (EDTA) was used to flush the lungs of blood via the right heart ventricle and the lungs were then harvested. BAL and lungs were collected and stored at −70° C. for evaluation of lung injury.
Measurement of EBD concentration in the lungs was performed by injection of EBD (20 mg/kg) into the right internal jugular vein 2 hr before the termination of the experiment to assess the vascular leak. Lungs free of blood were weighed and snap frozen in liquid nitrogen. The left lung was weighed and homogenized, then incubated with two volumes of formamide (18 hr, 60° C.) and centrifuged (5000 g, 30 min, 20° C.). The extravasated EBD concentration (mg/g, lung) in the lung homogenate was calculated against a standard curve. In a separate experiment the EBD was injected into the right internal jugular vein as described above at 2 hrs prior to termination of the experiment and the left lung gross anatomy view was photographed with a Leica NCL150 Camera.

[2] = system: LPS-induced mortality in mice; test: LPS-induced mortality / survival; assay type: in vivo
Description: Mice were injected with β-NAD (100 mg/kg, i.p) or vehicle (saline, i.p) 10 min after LPS (20 mg/kg, i.p) challenge. As a treatment strategy, β-NAD was given twice a day (i.p) for 4 days. […]

[3] = system: pro-inflammatory/anti-inflammatory cytokines gene expression; test: qPCR of cytokine gene expression in lungs; assay type: in vivo; details: LPS/β-NAD vs LPS only mice
Description: Total RNA was prepared from the lung of mouse tissue using RNeasy mini kit (Qiagen, Valencia, Calif.). The mRNA was reverse-transcribed into complementary deoxyribonucleic acid (cDNA) using iScript reagents from Bio-Rad on a programmable thermal cycler (PCR-Sprint, Thermo Electron, Milford, Mass.). 50 ng of cDNA was amplified in each real-time polymerase chain reaction using ABgene reagents (distributed by Fisher Scientific), Bio-Rad myiQ Cycler and Custom-designed primers for genes specific to the mice (Integrated DNA Technologies, Coralville, Iowa). The Reverse transcription reaction was carried out for 25 min at 42° C. and terminated for 5 min at 85° C. Real time PCR was performed by denaturation for 30 sec at 94° C., annealing for 30 sec at 60° C. for a total of 40 cycles. The glyceraldehyde-3-phosphate dehydrogenase (GAPDH) was used to normalize the expression of the target genes.

HPAEC monolayers = test: Transendothelial electrical resistance (TER) by ECIS in HPAEC monolayers; assay type: cell-based, human
Description: Human pulmonary artery endothial cells (HPAEC) and EBM-2 complete medium were purchased from Lonza (Allendale, N.J.). HPAEC were cultured according to the manufacturer's protocol and utilized at early (3-6) passages.
The barrier properties of endothelial cells monolayers were characterized using a highly sensitive electrical cell-substrate impedance sensing (ECIS) instrument to measure transendothelial electrical resistance (TER) as described (Birukova et al., 2004a. Microvasc Res 67(1):64-77; Kolosova et al., 2005, Circ Res 97(2):115-124). The TER data was normalized to the initial voltage.

LPS-induced ALI in mice [4] = test: BAL cell count; assay type: in vivo
Description: as §2, with “injury. […]” for “injury.”

[5] = system: myosin light chain (MLC) phosphorylation; test: MLC phosphorylation immunoblot in LPS-treated HPAEC; assay type: cell-based, human; details: LPS/β-NAD mixture, 4 hrs
Description: as §1

LPS-induced ALI in mice [6] = test: Lung histology (H&E); assay type: in vivo
Description: Lungs perfused free of blood after perfusion with EDTA, were immersed in 5% buffered paraformaldehyde for 18 hr at 4° C. prior to histological evaluation by hematoxylin and eosin staining (H&E staining). The right lung lobes were used for consistency. H&E staining was done by deparafinizing and hydrating the slides to water. The slides were stained in Harris Hematoxylin for 15 min and Eosin for 30 sec. The slides were dehydrated, cleared and mounted with cytoseal.

## NC(=O)C1=CN([C@@H]2O[C@H](COP(=O)(O)OP(=O)(O)OC[C@H]3O[C@@H](n4cnc5c(N)ncnc54)[C@H](O)[C@@H]3O)[C@@H](O)[C@H]2O)C=CC1 [β-NAD, beta-nicotinamide adenine dinucleotide]
Rac1
  Rac1 activation: dramatic β-NAD-dependent activation of Rac1 at early time points
LPS-induced ALI in mice [1]; LPS 0.9 mg/kg i.t. and b-NAD 5.46 mg/kg, 24 hr
  EBD leakage into lung parenchyma on gross examination: minimal leakage
LPS-induced ALI in mice [1]; b-NAD/LPS treated mice
  EBD-albumin in lung (average): 10.41 µg/g
LPS-induced ALI in mice [1]; β-NAD/saline control (no LPS)
  EBD-albumin in lung (average): 6.54 µg/g
[2]; 15 day study
  mortality, LPS vs. LPS/β-NAD: significantly reduced morality
[2]; LPS 20 mg/kg i.p., β-NAD 100 mg/kg i.p. twice a day, 4 days
  survival after LPS challenge: recovered and lived longer
[2]; β-NAD alone, no LPS
  survival, β-NAD alone: no effect
[3]
  anti-inflammatory cytokines (IL-4, IL-10, and IL-13) gene expression in lungs: elevated
  proinflammatory cytokines (IL-1α, IL-1β, IFN-γ and TNF-α) gene expression in lungs: substantially or markedly downregulated
HPAEC monolayers; 100 nM thrombin in mixture with 50 mM b-NAD
  thrombin-induced endothelial cell permeability (TER): significantly attenuated the thrombin-induced endothelial cell permeability
HPAEC monolayers; LPS (100 ng/ml) with β-NAD added
  decrease in TER from base line: ~30%
HPAEC monolayers; PLY in a mixture with 50 mM β-NAD
  PLY-induced loss of monolayer integrity (TER): failed to produce such drastic effect
HPAEC monolayers; b-NAD alone, quiescent HPAEC, 10-100 mM as printed
  TER of HPAEC monolayers (endothelial barrier function): positive effect; also recorded: significant initial increase in TER
HPAEC monolayers; cytochalasin B pretreatment 30 min, then 50 μM β-NAD
  β-NAD effect on TER after cytochalasin B: did not increase the TER
HPAEC monolayers; nocodazole pretreatment 30 min, then 50 μM β-NAD
  β-NAD effect on TER after nocodazole: restored endothelial cell barrier integrity
LPS-induced ALI in mice [4]; LPS treated mice, BAL at 24 hr
  total WBCs in BAL fluid: reduced total WBCs in BAL fluid
LPS-induced ALI in mice [4]; LPS/b-NAD compared to LPS only treated mice
  neutrophil count of BAL fluid: decrease in neutrophil count
[5]
  LPS-stimulated MLC phosphorylation: significantly inhibited
LPS-induced ALI in mice [6]; LPS/β-NAD vs LPS treated lung, 18 hr
  interstitial edema and infiltration of neutrophils (histology): less prominent
LPS-induced ALI in mice [6]; β-NAD alone, no LPS
  lung histology, β-NAD alone: no effect
